# According to patent US20120245223A1, “USE OF GYMNODIMINE, ANALOGUES AND DERIVATIVES FOR THE TREATMENT AND/OR PREVENTION OF NEURODEGENERATIVE DISEASES ASSOCIATED WITH TAU AND B-AMYLOID” (priority 2009, published 2012):
# How the values were obtained:
# total tau = assay: Western blot of total tau basal levels (Tau46 antibody) in control neurones; format: cell-based, mouse; details: control (non-transgenic) neurones, 50 nM; mean ± standard error, two experiments
# Method: (§1) The effect of gymnodimine on overexpression of β-amyloid and tau hyperphosphorylation was determined by the Western blot technique. Primary neuronal cultures were treated with 50 nM gymnodimine for between 3 and 7 days of culture. The cells were then processed following the usual protocols for Western blot. For Western blot studies, protein expression was evaluated using 6E10 anti-β-amyloid primary antibodies at a dilution of 1:500, AT8 anti-Tau (tau phosphorylated on Ser202, dilution 1:1000) and AT100 anti-tau (tau phosphorylated on Thr212 and Ser214, dilution 1:1000). For Western blot assays, the neuronal cultures treated with gymnodimine were washed with cold phosphate buffer and lysed in 50 mM Tris-HCl buffer (pH 7.4) containing 150 mM NaCl, 1 mM EDTA, 1% Triton X-100, 2 mM DTT, 2.5 mM PMSF, 40 mg/ml aprotinin, 4 mg/ml leupeptin, 5 mM NaF, 1 mM Na3VO4, 1 mg/ml pepstatin A and 1 mg/ml benzamidine. Total protein concentration was determined by Bradford's method using bovine albumin as standard. […] The membranes were incubated with the primary antibodies, washed, and then incubated with a secondary antibody linked to HRP; the immunoreactivity was detected by chemiluminescence. […]
# (§2) The effect of gymnodimine on basal phosphorylation of tau was determined by Western blot techniques. […]
# [1] = system: tau phosphorylated on Thr212 and Ser214; assay: Western blot of tau phosphorylated on Thr212 and Ser214 (AT100 antibody) in 3×Tg-AD cortical cultures; format: cell-based, mouse; details: 3×Tg transgenic cultures, 50 nM, 3 to 7 days; p<0.001, n=3
# Text: (§3) In order to carry out the experiments of the present invention, either an in vitro cortical neuronal model with simultaneous overexpression of tau and β-amyloid, obtained from a model of Alzheimer's disease in triple-transgenic (3×Tg-AD or 3×Tg) mice, obtainable via the detailed procedure in the international patent application WO2003/053136 and provided by the title holders of this application, or an in vitro cortical neuronal model obtained from non-transgenic (Non Tg) mice.
# as §1, with “For Western blot assays, the neuronal cultures treated with gymnodimine were washed with cold phosphate buffer and lysed in 50 mM Tris-HCl buffer (pH 7.4) containing 150 mM NaCl, 1 mM EDTA, 1% Triton X-100, 2 mM DTT, 2.5 mM PMSF, 40 mg/ml aprotinin, 4 mg/ml leupeptin, 5 mM NaF, 1 mM Na3VO4, 1 mg/ml pepstatin A and 1 mg/ml benzamidine.” left out
# [2] = system: tau phosphorylated on site Ser202; assay: Western blot of basal tau phosphorylated on Ser202 in control neurones; format: cell-based, mouse; details: control (non-transgenic) neurones, 50 nM
# Method: as §1, §2
# [3] = system: tau phosphorylated on Ser202; assay: Western blot of tau phosphorylated on Ser202 (AT8 antibody) in 3×Tg-AD cortical cultures; format: cell-based, mouse; details: 3×Tg transgenic cultures, 50 nM, 3 to 7 days; p<0.05, n=3
# Text: as §3
# as §1, with “For Western blot assays, the neuronal cultures treated with gymnodimine were washed with cold phosphate buffer and lysed in 50 mM Tris-HCl buffer (pH 7.4) containing 150 mM NaCl, 1 mM EDTA, 1% Triton X-100, 2 mM DTT, 2.5 mM PMSF, 40 mg/ml aprotinin, 4 mg/ml leupeptin, 5 mM NaF, 1 mM Na3VO4, 1 mg/ml pepstatin A and 1 mg/ml benzamidine.” left out
# cortical neurones = assay: Alamar Blue fluorescence viability assay in primary cortical cultures; format: cell-based, mouse; details: for Viability of cortical neurones: 72 hours in culture, mean ± standard error, three experiments
# Text: as §3
# The primary cortical cultures in the present invention were obtained from 3×Tg-AD mouse embryos of 15-17 days gestation and the wild cultures were obtained from non-3×Tg control mouse embryos of the same strain. The effect of the compounds used in this invention on cellular viability was estimated by a fluorescence assay using the Alamar Blue viability indicator. To carry out the assay, primary cortical cultures seeded on 96-well plates were used. The neuronal cells were incubated with gymnodimine, which was added to the culture medium at different concentrations, and the effect on in vitro neuronal viability at different treatment times was determined. The maximum concentration of gymnodimine evaluated was 100 nM and the concentration of Alamar blue was 10%. The volume of the reaction used was 200 μl. Fluorescence was measured at wavelengths of 530 nm (excitation) and 590 nm (emission).
# [4] = system: nicotinic acetylcholine receptors; details: blocking effect; Kharrat et al. 2008, Dragunow et al. 2005; cited from earlier work
# β-amyloid = assay: Western blot of intracellular β-amyloid (6E10 antibody) in 3×Tg-AD cortical cultures; format: cell-based, mouse; details: 3×Tg-AD neocortical cultures, 50 nM, 3 to 7 days; p<0.005, n=3
# Text: as §3
# as §1, with “For Western blot assays, the neuronal cultures treated with gymnodimine were washed with cold phosphate buffer and lysed in 50 mM Tris-HCl buffer (pH 7.4) containing 150 mM NaCl, 1 mM EDTA, 1% Triton X-100, 2 mM DTT, 2.5 mM PMSF, 40 mg/ml aprotinin, 4 mg/ml leupeptin, 5 mM NaF, 1 mM Na3VO4, 1 mg/ml pepstatin A and 1 mg/ml benzamidine.” left out
# [5] = cited from earlier work
smiles,measurement,setting,value
"CC1=C[C@@H](C2=C(C)[C@@H]3/C=C(\C)[C@@H](O)CC[C@H]4C[C@@H](C)[C@@H](O4)/C(C)=C/CCC4=NCCC[C@@]43CC2)OC1=O [Gymnodimine, gymnodimine]",Total tau basal levels,total tau,111 ± 3.9% control
same,"Tau phosphorylation on Thr212 and Ser214 (Western blot, AT100)",[1],significant reduction of tau phosphorylation
same,Levels of tau phosphorylated on site Ser202,[2],95% control
same,"Tau phosphorylation on Ser202 (Western blot, AT8)",[3],significant reduction of tau phosphorylation
same,Viability of cortical neurones,cortical neurones; 2.5 nM,97.0 ± 4.9 % control
same,Viability of cortical neurones,cortical neurones; 5 nM,102.8 ± 0.3 % control
same,Viability of cortical neurones,cortical neurones; 10 nM,105.6 ± 5.9 % control
same,Viability of cortical neurones,cortical neurones; 25 nM,105.1 ± 1.09 % control
same,Viability of cortical neurones,cortical neurones; 50 nM,102.9 ± 1.4 % control
same,Viability of cortical neurones,cortical neurones; 100 nM,101.8 ± 1.7 % control
same,Effect on cell viability (in words),"cortical neurones; up to maximum concentration of 100 nM, neuronal model",does not cause a reduction in cell viability
same,Binding to nicotinic acetylcholine receptors,[4],high affinity binding
same,"Expression of intracellular β-amyloid (Western blot, 6E10)",β-amyloid,significant reduction of overexpression of β-amyloid
same,Toxicity intracerebrally versus intraperitoneally,[5]; introduced intracerebrally compared with intraperitoneally,much higher when it is introduced intracerebrally
same,Toxicity when orally administered,"[5]; oral administration, Munday et al. 2004",significantly reduced toxicity
